Measured values as given in patent US10588317B2, “Isoxazoline-substituted benzamides and analogues as insecticides” (priority 2015, dated 2020).

Columns and labels:
Assay type in all cases: in vivo
Euschistus heros = Euschistus heros (neotropical brown stink bug), sprayed soybean leaves; details: 120 h, application rate 200 ppm, N2 nymphs, 5 days after infestation, read-out: effect in at least one of the two categories (mortality or growth inhibition)
Procedure, shortened: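 Soybean leaves on agar sprayed with aqueous dilutions of DMSO stocks, dried, then infested with N2 nymphs. Mortality and growth inhibition scored against untreated samples 5 days after infestation; application rate 200 ppm.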

Plutella xylostella = Plutella xylostella (diamond back moth), artificial diet; details: 120 h, application rate 200 ppm, L2 larvae, 5 days after infestation, read-out: effect in at least one of the two categories (mortality or growth inhibition)
Procedure, shortened: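 Artificial diet in 24-well plates treated with aqueous test solutions made from 10'000 ppm DMSO stocks, dried, then infested with L2 larvae (10 to 15 per well). Mortality and growth inhibition scored against untreated samples 5 days after infestation; activity cut-off at least 80% in either category at 200 ppm.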

Tetranychus urticae = Tetranychus urticae (two-spotted spider mite): feeding/contact activity; details: 192 h, application rate 200 ppm, mixed population (mobile stages), 8 days after infestation, read-out: mortality
Protocol: Bean leaf discs on agar in 24-well microtiter plates were sprayed with aqueous test solutions prepared from 10'000 ppm DMSO stock solutions. After drying the leaf discs were infested with a mite population of mixed ages. The samples were assessed for mortality on mixed population (mobile stages) 8 days after infestation.

Thrips tabaci = Thrips tabaci (onion thrips): feeding/contact activity; details: 144 h, application rate 200 ppm, Thrips population of mixed ages, 6 days after infestation, read-out: mortality
Protocol: Sunflower leaf discs were placed on agar in 24-well microtiter plates and sprayed with aqueous test solutions prepared from 10'000 ppm DMSO stock solutions. After drying the leaf discs were infested with a Thrips population of mixed ages. The samples were assessed for mortality 6 days after infestation.

Spodoptera littoralis [1] = experiment: Spodoptera littoralis (Egyptian cotton leaf worm), sprayed cotton leaf discs; details: foliar, 72 h, application rate 200 ppm, L1 larvae, 3 days after infestation, read-out: control (mortality, anti-feeding effect, growth inhibition)
Procedure, shortened: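 Cotton leaf discs on agar sprayed with aqueous test solutions made from 10'000 ppm DMSO stock; after drying, infested with five L1 larvae. Mortality, anti-feeding and growth inhibition scored versus untreated samples 3 days after infestation; control counted when any category exceeds untreated.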

Myzus persicae = Myzus persicae (green peach aphid): feeding/contact activity; details: 144 h, application rate 200 ppm, aphid population of mixed ages, 6 days after infestation, read-out: mortality
Protocol: Sunflower leaf discs were placed onto agar in a 24-well microtiter plate and sprayed with aqueous test solutions prepared from 10'000 ppm DMSO stock solutions. After drying, the leaf discs were infested with an aphid population of mixed ages. The samples were assessed for mortality 6 days after infestation.

Diabrotica balteata = Diabrotica balteata (corn root worm), sprayed maize sprouts; details: 96 h, application rate 200 ppm, L2 larvae, 4 days after infestation, read-out: effect in at least one of the two categories (mortality or growth inhibition)
Procedure, shortened: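 Maize sprouts on agar sprayed with aqueous dilutions of DMSO stocks, dried, then infested with L2 larvae (6–10 per well). Mortality and growth inhibition scored against untreated controls 4 days after infestation, at 200 ppm application rate.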

Spodoptera littoralis [2] = experiment: Spodoptera littoralis (Egyptian cotton leaf worm), uptake by lettuce roots from agar; details: 144 h, read-out: effect in at least one of the three categories (mortality, anti-feeding, or growth inhibition)
Source text: Test compounds were applied by pipette from 10'000 ppm DMSO stock solutions into 24-well plates and mixed with agar. Lettuce seeds were placed onto the agar and the multi well plate was closed by another plate which contained also agar. After 7 days the compound was absorbed by the roots and the lettuce grew into the lid plate. The lettuce leaves were then cut off into the lid plate. Spodoptera eggs were pipetted through a plastic stencil onto a humid gel blotting paper and the lid plate was closed with it. The samples were assessed for mortality, anti-feedant effect and growth inhibition in comparison to untreated samples 6 days after infestation.
The following compounds gave an effect of at least 80% in at least one of the three categories (mortality, anti-feeding, or growth inhibition) at a test rate of 12.5 ppm: […]

CCS(=O)(=O)N1C[C@@H](NC(=O)c2ccc(C3=NO[C@@](c4cc(Cl)cc(C(F)(F)F)c4)(C(F)(F)F)C3)cc2C)CO1 [Compound A120, 4-[(5S)-5-[3-chloro-5-(trifluoromethyl)phenyl]-5-(trifluoromethyl)-4H-isoxazol-3-yl]-N-[(4R)-2-ethylsulfonylisoxazolidin-4-yl]-2-methyl-benzamide]
≥ 80%: percent effect (mortality or growth inhibition) at 200 ppm (Euschistus heros) | percent effect (mortality or growth inhibition) at 200 ppm (Plutella xylostella) | mortality at 200 ppm (Tetranychus urticae) | mortality at 200 ppm (Thrips tabaci) | mortality at 200 ppm (Spodoptera littoralis [1]) | mortality at 200 ppm (Myzus persicae) | percent effect (mortality or growth inhibition) at 200 ppm (Diabrotica balteata) | percent control (mortality, anti-feedant effect or growth inhibition) at 12.5 ppm (Spodoptera littoralis [2])

CCS(=O)(=O)N1CC(NC(=O)c2ccc(C3=NO[C@@](c4cc(Cl)cc(C(F)(F)F)c4)(C(F)(F)F)C3)cc2C)CO1 (stereo partly drawn) [Compound A42]
≥ 80%: percent effect (mortality or growth inhibition) at 200 ppm (Euschistus heros) | percent effect (mortality or growth inhibition) at 200 ppm (Plutella xylostella) | mortality at 200 ppm (Tetranychus urticae) | mortality at 200 ppm (Thrips tabaci) | mortality at 200 ppm (Spodoptera littoralis [1]) | mortality at 200 ppm (Myzus persicae) | percent effect (mortality or growth inhibition) at 200 ppm (Diabrotica balteata) | percent control (mortality, anti-feedant effect or growth inhibition) at 12.5 ppm (Spodoptera littoralis [2])

Cc1cc(C2=NO[C@@](c3cc(Cl)cc(C(F)(F)F)c3)(C(F)(F)F)C2)ccc1C(=O)N[C@H]1CON(S(C)(=O)=O)C1 [Compound A75]
≥ 80%: percent effect (mortality or growth inhibition) at 200 ppm (Euschistus heros) | percent effect (mortality or growth inhibition) at 200 ppm (Plutella xylostella) | mortality at 200 ppm (Tetranychus urticae) | mortality at 200 ppm (Thrips tabaci) | mortality at 200 ppm (Spodoptera littoralis [1]) | mortality at 200 ppm (Myzus persicae) | percent effect (mortality or growth inhibition) at 200 ppm (Diabrotica balteata) | percent control (mortality, anti-feedant effect or growth inhibition) at 12.5 ppm (Spodoptera littoralis [2])

Cc1cc(C2=NOC(c3cc(Cl)c(F)c(Cl)c3)(C(F)(F)F)C2)ccc1C(=O)NC1CON(S(C)(=O)=O)C1 (stereo not drawn) [Compound A63]
≥ 80%: percent effect (mortality or growth inhibition) at 200 ppm (Euschistus heros) | percent effect (mortality or growth inhibition) at 200 ppm (Plutella xylostella) | mortality at 200 ppm (Tetranychus urticae) | mortality at 200 ppm (Thrips tabaci) | mortality at 200 ppm (Spodoptera littoralis [1]) | mortality at 200 ppm (Myzus persicae) | percent effect (mortality or growth inhibition) at 200 ppm (Diabrotica balteata) | percent control (mortality, anti-feedant effect or growth inhibition) at 12.5 ppm (Spodoptera littoralis [2])

Cc1cc(C2=NO[C@@](c3cc(Cl)c(F)c(Cl)c3)(C(F)(F)F)C2)ccc1C(=O)NC1CON(S(=O)(=O)C2CC2)C1 (stereo partly drawn) [Compound A6]
≥ 80%: percent effect (mortality or growth inhibition) at 200 ppm (Euschistus heros) | percent effect (mortality or growth inhibition) at 200 ppm (Plutella xylostella) | mortality at 200 ppm (Tetranychus urticae) | mortality at 200 ppm (Thrips tabaci) | mortality at 200 ppm (Spodoptera littoralis [1]) | mortality at 200 ppm (Myzus persicae) | percent effect (mortality or growth inhibition) at 200 ppm (Diabrotica balteata) | percent control (mortality, anti-feedant effect or growth inhibition) at 12.5 ppm (Spodoptera littoralis [2])

CCS(=O)(=O)N1C[C@@H](NC(=O)c2ccc(C3=NO[C@@](c4cc(Cl)cc(C(F)(F)F)c4)(C(F)(F)F)C3)cc2Cl)CO1 [Compound A122]
≥ 80%: percent effect (mortality or growth inhibition) at 200 ppm (Euschistus heros) | percent effect (mortality or growth inhibition) at 200 ppm (Plutella xylostella) | mortality at 200 ppm (Tetranychus urticae) | mortality at 200 ppm (Thrips tabaci) | mortality at 200 ppm (Spodoptera littoralis [1]) | mortality at 200 ppm (Myzus persicae) | percent effect (mortality or growth inhibition) at 200 ppm (Diabrotica balteata) | percent control (mortality, anti-feedant effect or growth inhibition) at 12.5 ppm (Spodoptera littoralis [2])

CCNS(=O)(=O)N1C[C@@H](NC(=O)c2ccc(C3=NO[C@@](c4cc(Cl)cc(Cl)c4)(C(F)(F)F)C3)cc2Cl)CO1 [Compound A113, 2-chloro-4-[(5S)-5-(3,5-dichlorophenyl)-5-(trifluoromethyl)-4H-isoxazol-3-yl]-N-[(4R)-2-(ethylsulfamoyl)isoxazolidin-4-yl]benzamide]
≥ 80%: percent effect (mortality or growth inhibition) at 200 ppm (Euschistus heros) | percent effect (mortality or growth inhibition) at 200 ppm (Plutella xylostella) | mortality at 200 ppm (Tetranychus urticae) | mortality at 200 ppm (Thrips tabaci) | mortality at 200 ppm (Spodoptera littoralis [1]) | mortality at 200 ppm (Myzus persicae) | percent effect (mortality or growth inhibition) at 200 ppm (Diabrotica balteata) | percent control (mortality, anti-feedant effect or growth inhibition) at 12.5 ppm (Spodoptera littoralis [2])

CCNS(=O)(=O)N1C[C@@H](NC(=O)c2ccc(C3=NO[C@@](c4cc(Cl)c(F)c(Cl)c4)(C(F)(F)F)C3)cc2C)CO1 [Compound A133, 4-[(5S)-5-(3,5-dichloro-4-fluoro-phenyl)-5-(trifluoromethyl)-4H-isoxazol-3-yl]-N-[(4R)-2-(ethylsulfamoyl)isoxazolidin-4-yl]-2-methyl-benzamide]
≥ 80%: percent effect (mortality or growth inhibition) at 200 ppm (Euschistus heros) | percent effect (mortality or growth inhibition) at 200 ppm (Plutella xylostella) | mortality at 200 ppm (Tetranychus urticae) | mortality at 200 ppm (Thrips tabaci) | mortality at 200 ppm (Spodoptera littoralis [1]) | mortality at 200 ppm (Myzus persicae) | percent effect (mortality or growth inhibition) at 200 ppm (Diabrotica balteata) | percent control (mortality, anti-feedant effect or growth inhibition) at 12.5 ppm (Spodoptera littoralis [2])

O=C(NC1CON(S(=O)(=O)C2CC2)C1)c1ccc(C2=NO[C@@](c3cc(Cl)c(F)c(Cl)c3)(C(F)(F)F)C2)cc1Cl (stereo partly drawn) [Compound A24, 2-chloro-N-(2-cyclopropylsulfonylisoxazolidin-4-yl)-4-[(5S)-5-(3,5-dichloro-4-fluoro-phenyl)-5-(trifluoromethyl)-4H-isoxazol-3-yl]benzamide]
≥ 80%: percent effect (mortality or growth inhibition) at 200 ppm (Plutella xylostella) | mortality at 200 ppm (Tetranychus urticae) | mortality at 200 ppm (Thrips tabaci) | mortality at 200 ppm (Spodoptera littoralis [1]) | mortality at 200 ppm (Myzus persicae) | percent effect (mortality or growth inhibition) at 200 ppm (Diabrotica balteata) | percent control (mortality, anti-feedant effect or growth inhibition) at 12.5 ppm (Spodoptera littoralis [2])

Cc1cc(C2=NO[C@@](c3cc(Cl)c(F)c(Cl)c3)(C(F)(F)F)C2)ccc1C(=O)NC1CON(S(C)(=O)=O)C1 (stereo partly drawn) [Compound A1, 4-[(5S)-5-(3,5-dichloro-4-fluoro-phenyl)-5-(trifluoromethyl)-4H-isoxazol-3-yl]-2-methyl-N-(2-methylsulfonylisoxazolidin-4-yl)benzamide]
≥ 80%: percent effect (mortality or growth inhibition) at 200 ppm (Plutella xylostella) | mortality at 200 ppm (Tetranychus urticae) | mortality at 200 ppm (Thrips tabaci) | mortality at 200 ppm (Spodoptera littoralis [1]) | mortality at 200 ppm (Myzus persicae) | percent effect (mortality or growth inhibition) at 200 ppm (Diabrotica balteata) | percent control (mortality, anti-feedant effect or growth inhibition) at 12.5 ppm (Spodoptera littoralis [2])

O=C(NC1CON(S(=O)(=O)C2CC2)C1)c1ccc(C2=NO[C@@](c3cc(Cl)c(Cl)c(Cl)c3)(C(F)(F)F)C2)cc1Cl (stereo partly drawn) [Compound A30, 2-chloro-N-(2-cyclopropylsulfonylisoxazolidin-4-yl)-4-[(5S)-5-(3,4,5-trichlorophenyl)-5-(trifluoromethyl)-4H-isoxazol-3-yl]benzamide]
≥ 80%: percent effect (mortality or growth inhibition) at 200 ppm (Plutella xylostella) | mortality at 200 ppm (Tetranychus urticae) | mortality at 200 ppm (Thrips tabaci) | mortality at 200 ppm (Spodoptera littoralis [1]) | mortality at 200 ppm (Myzus persicae) | percent effect (mortality or growth inhibition) at 200 ppm (Diabrotica balteata) | percent control (mortality, anti-feedant effect or growth inhibition) at 12.5 ppm (Spodoptera littoralis [2])

CCS(=O)(=O)N1CC(NC(=O)c2ccc(C3=NO[C@@](c4cc(Cl)c(F)c(Cl)c4)(C(F)(F)F)C3)cc2Cl)CO1 (stereo partly drawn) [Compound A25, 2-chloro-4-[(5S)-5-(3,5-dichloro-4-fluoro-phenyl)-5-(trifluoromethyl)-4H-isoxazol-3-yl]-N-(2-ethylsulfonylisoxazolidin-4-yl)benzamide]
≥ 80%: percent effect (mortality or growth inhibition) at 200 ppm (Plutella xylostella) | mortality at 200 ppm (Tetranychus urticae) | mortality at 200 ppm (Thrips tabaci) | mortality at 200 ppm (Spodoptera littoralis [1]) | mortality at 200 ppm (Myzus persicae) | percent effect (mortality or growth inhibition) at 200 ppm (Diabrotica balteata) | percent control (mortality, anti-feedant effect or growth inhibition) at 12.5 ppm (Spodoptera littoralis [2])

Cc1cc(C2=NO[C@@](c3cc(Br)cc(C(F)(F)F)c3)(C(F)(F)F)C2)ccc1C(=O)NC1CON(S(C)(=O)=O)C1 (stereo partly drawn) [Compound A16]
≥ 80%: percent effect (mortality or growth inhibition) at 200 ppm (Plutella xylostella) | mortality at 200 ppm (Tetranychus urticae) | mortality at 200 ppm (Thrips tabaci) | mortality at 200 ppm (Spodoptera littoralis [1]) | mortality at 200 ppm (Myzus persicae) | percent effect (mortality or growth inhibition) at 200 ppm (Diabrotica balteata) | percent effect (mortality, anti-feeding or growth inhibition) at 12.5 ppm (Spodoptera littoralis [2]; test rate 12.5 ppm, eggs, 6 days after infestation)
